Measurements published in US10960087B2, “Compositions and methods for treatment of diabetic retinopathy” (NOVARTIS AG, priority 2007, dated 2021).

Key:
[1] = test system: HuT 78 cell adhesion to 5dICAM-Ig; test: Human T-cell adhesion assay (HuT 78); type: cell-based; settings: HuT78, HuT 78 adhesion to 5dICAM-Ig
Experimental: The T-cell adhesion assay was performed using the human T-lymphoid cell line HuT 78 (ATCC TIB-161). Goat anti-HuIgG(Fc) was diluted to 2 μg/ml in PBS and 96-well plates were coated with 50 μl/well at 37° C. for 1 h. Plates were washed with PBS and blocked for 1 h at room temperature with 1% BSA in PBS. 5 domain ICAM-Ig was diluted to 100 ng/ml in PBS and 50 μl/well was added to the plates 0/N at 4° C. HuT 78 cells were centrifuged at 100 g and the cell pellet was treated with 5 mM EDTA for ˜5′ at 37° C. in a 5% CO2 incubator. Cells were washed in 0.14 M NaCl, 0.02 M Hepes, 0.2% glucose and 0.1 mM MnCl2 (assay buffer) and centrifuged. The cells were resuspended in assay buffer to 3.0×10^6 c/ml. Inhibitors were diluted in assay buffer to a 2× final concentration and pre-incubated with HuT78 cells for 30′ at room temperature. 100 μl/well of cells and inhibitors were added to the plates and incubated at room temperature for 1 h. 100 μl/well PBS was added and the plates were sealed and centrifuged inverted at 100 g for 5′. Unattached cells were flicked out of the plate and excess PBS was blotted on a paper towel. 60 μl/well p-nitrophenyl n-acetyl-β-D-glucosaminide (0.257 g to 100 ml citrate buffer) was added to the plate and incubated for 1.5 h at 37° C. The enzyme reaction was stopped with 90 μI/well 50 mM glycine/5 mM EDTA and read on a platereader at […]. HUT 78 cell adhesion to 5dICAM-Ig was measured using the p-nitrophenyl n-acetyl-.β-D-glucosaminide method of Landegren, U. (1984). J. Immunol. Methods 57, 379-388.

Solubility = type: physicochemical

O=C(N[C@@H](Cc1c[nH]cn1)C(=O)O)c1c(Cl)cc2c(c1Cl)CCN(C(=O)c1ccc(Cl)cc1)C2 [Compound 1]
EC50 [1]: ≤ 300 nM

O=C(NC[C@H](NC(=O)c1c(Cl)cc2c(c1Cl)CCN(C(=O)c1cccc(Cl)c1)C2)C(=O)O)c1cccs1 [Compound 2]
EC50 [1]: ≤ 50 nM
solubility (Solubility): > 100 mg/mL

O=C(N[C@@H](CNc1ncnc2ccccc12)C(=O)O)c1c(Cl)cc2c(c1Cl)CCN(C(=O)c1ccc(Cl)cc1)C2 [Compound 3]
EC50 [1]: ≤ 50 nM

C=C(C)c1cn(C[C@H](NC(=O)c2c(Cl)cc3c(c2Cl)CCN(C(=O)c2ccc(Cl)cc2)C3)C(=O)O)nn1 [Compound 4]
EC50 [1]: ≤ 100 nM

O=C(NC[C@H](NC(=O)c1c(Cl)cc2c(c1Cl)CCN(C(=O)c1ccc(Cl)cc1)C2)C(=O)O)c1ccccc1 [Compound 5]
EC50 [1]: ≤ 50 nM

CCc1c(C(=O)N[C@@H](CNC(=O)c2cccs2)C(=O)O)c2ccccc2n(CCCc2ccccc2)c1=O [Compound 6]
EC50 [1]: ≤ 50 nM
solubility (Solubility): > 100 mg/mL

CS(=O)(=O)c1nc(C[C@H](NC(=O)c2c(Cl)cc3c(c2Cl)CCN(C(=O)c2ccc(Cl)cc2)C3)C(=O)O)c[nH]1 [Compound 7]
EC50 [1]: ≤ 50 nM

O=C(N[C@@H](Cn1cc(CO)nn1)C(=O)O)c1c(Cl)cc2c(c1Cl)CCN(C(=O)c1ccc(Cl)cc1)C2 [Compound 8]
EC50 [1]: ≤ 100 nM

C[S+]([O-])c1cc(F)cc(C[C@H](NC(=O)c2c(Cl)cc3c(c2Cl)CCN(C(=O)c2ccc(Cl)cc2)C3)C(=O)O)c1 (stereo partly shown) [Compound 9]
EC50 [1]: ≤ 50 nM
solubility (Solubility): > 50 mg/mL

CN1CCN(C(=O)[C@H](CNC(=O)c2cccs2)NC(=O)c2c(Cl)cc3c(c2Cl)CCN(C(=O)c2ccc(Cl)cc2)C3)CC1 [Compound 10]
solubility (Solubility): > 100 mg/mL

O=C(NC[C@H](NC(=O)c1cc2c(cc1Cl)C(=O)N(Cc1ccccc1)CC2)C(=O)O)c1cccs1 [Compound 11]
EC50 [1]: ≤ 3000 nM

CS(=O)(=O)c1cccc(C[C@H](NC(=O)c2c(Cl)cc3c(c2Cl)CCN(C(=O)c2ccc4ccoc4c2)C3)C(=O)O)c1 [Compound 12]
EC50 [1]: ≤ 50 nM
solubility (Solubility): > 100 mg/mL

O=C(NC[C@H](NC(=O)c1c(Cl)cc2c(c1Cl)CCN(C(=O)c1ccc3cc[nH]c3c1)C2)C(=O)O)c1cccs1 [Compound 13]
EC50 [1]: ≤ 50 nM

C[S+]([O-])c1cncc(C[C@H](NC(=O)c2c(Cl)cc3c(c2Cl)CCN(C(=O)c2ccc4ccoc4c2)C3)C(=O)O)c1 (stereo partly shown) [Compound 14]
EC50 [1]: ≤ 50 nM

CS(=O)(=O)c1cccc(C[C@H](NC(=O)c2c(Cl)cc3c(c2Cl)CCN(C(=O)c2ccc4cn[nH]c4c2)C3)C(=O)O)c1 [Compound 15]
EC50 [1]: ≤ 50 nM
solubility (Solubility): > 100 mg/mL

CS(=O)(=O)c1cccc(C[C@H](NC(=O)c2c(Cl)cc3c(c2Cl)CCN(C(=O)c2cc4ccccc4cn2)C3)C(=O)O)c1 [Compound 16]
EC50 [1]: ≤ 50 nM
solubility (Solubility): > 100 mg/mL

O=C(NC[C@H](NC(=O)c1c(Cl)cc2c(c1Cl)CCN(C(=O)c1ccc(Cl)cc1)C2CO)C(=O)O)c1cccs1 (stereo partly shown) [Compound 17]
EC50 [1]: ≤ 50 nM

O=C(NC[C@H](NC(=O)c1c(Cl)cc2c(c1Cl)CCN(C(=O)c1ccc(Cl)c(Cl)c1)C2)C(=O)O)c1cccs1 [Compound 18]
EC50 [1]: ≤ 50 nM

CS(=O)(=O)c1cccc(C[C@H](NC(=O)c2c(Cl)cc3c(c2Cl)CCN(C(=O)c2cc4cccnc4[nH]2)C3)C(=O)O)c1 [Compound 19]
EC50 [1]: ≤ 50 nM
solubility (Solubility): > 50 mg/mL

CS(=O)(=O)c1ccc(C[C@H](NC(=O)c2c(Cl)cc3c(c2Cl)CCN(C(=O)c2cc4cccnc4[nH]2)C3)C(=O)O)o1 [Compound 20]
EC50 [1]: ≤ 50 nM
solubility (Solubility): > 100 mg/mL

O=C(NC[C@H](NC(=O)c1c(Cl)cc2c(c1Cl)CCN(C(=O)Nc1cccc(Cl)c1)C2)C(=O)O)c1cccs1 [Compound 21]
EC50 [1]: ≤ 50 nM
solubility (Solubility): > 100 mg/mL

CS(=O)(=O)c1ccn(C[C@H](NC(=O)c2c(Cl)cc3c(c2Cl)CCN(C(=O)c2ccc4ccoc4c2)C3)C(=O)O)c1 [Compound 22]
EC50 [1]: ≤ 50 nM

CS(=O)(=O)N1CCC=C(C[C@H](NC(=O)c2c(Cl)cc3c(c2Cl)CCN(C(=O)c2ccc4ccoc4c2)C3)C(=O)O)C1 [Compound 23]
EC50 [1]: ≤ 50 nM

CC(C)n1cc(C[C@H](NC(=O)c2c(Cl)cc3c(c2Cl)CCN(C(=O)c2ccc(Cl)cc2)C3)C(=O)O)nn1 [Compound 24]
EC50 [1]: ≤ 100 nM

CS(=O)(=O)c1cc(F)cc(C[C@H](NC(=O)c2c(Cl)cc3c(c2Cl)CCN(C(=O)c2ccc4ccoc4c2)C3)C(=O)O)c1 [Compound 25]
EC50 [1]: ≤ 50 nM
solubility (Solubility): > 100 mg/mL

N#CN=C(NC[C@H](NC(=O)c1c(Cl)cc2c(c1Cl)CCN(C(=O)/C=C/c1ccccc1O)C2)C(=O)O)N1CC[C@H](O)C1 [Compound 26]
EC50 [1]: ≤ 50 nM

CS(=O)(=O)c1cccc(C[C@H](NC(=O)c2c(Cl)cc3c(c2Cl)CCN(C(=O)/C=C/c2ccccc2F)C3)C(=O)O)c1 [Compound 27]
EC50 [1]: ≤ 50 nM
solubility (Solubility): > 100 mg/mL

CS(=O)(=O)c1cccc(C[C@H](NC(=O)c2c(Cl)cc3c(c2Cl)CCN(C(=O)c2ccc(Cl)cc2)C3)C(=O)O)c1 [Compound 28]
EC50 [1]: ≤ 50 nM

Cc1cc2c(=O)n(Cc3ccccc3)ncc2cc1C(=O)N[C@@H](CNC(=O)c1cccs1)C(=O)O [Compound 29]
EC50 [1]: ≤ 3000 nM
solubility (Solubility): > 50 mg/mL

Cc1oc(C[C@H](NC(=O)c2c(Cl)cc3c(c2Cl)CCN(C(=O)c2ccc4ccoc4c2)C3)C(=O)O)cc1S(C)(=O)=O [Compound 30]
EC50 [1]: ≤ 50 nM

O=C(NC[C@H](NC(=O)c1c(Cl)cc2c(c1Cl)CCN(C(=O)c1ccc3ccoc3c1)C2)C(=O)O)c1cccc(F)c1 [Compound 31]
EC50 [1]: ≤ 50 nM
solubility (Solubility): > 50 mg/mL

O=C(NC[C@H](NC(=O)c1c(Cl)cc(CCC(O)c2cccc(O)c2)cc1Cl)C(=O)O)c1cccs1 (stereo partly shown) [Compound 32]
EC50 [1]: ≤ 50 nM
solubility (Solubility): > 50 mg/mL

CS(=O)(=O)c1cncc(C[C@H](NC(=O)c2c(Cl)cc3c(c2Cl)CCN(C(=O)c2ccc4ccoc4c2)C3)C(=O)O)c1 [Compound 33]
EC50 [1]: ≤ 50 nM

O=C(NC[C@H](NC(=O)c1c(Cl)cc2c(c1Cl)CCN(C(=O)c1ccc3cn[nH]c3c1)C2)C(=O)O)c1cccs1 [Compound 34]
EC50 [1]: ≤ 50 nM

O=C(NC[C@H](NC(=O)c1c(Cl)cc2c(c1Cl)CCN(C(=O)c1cc(O)nc3ccccc13)C2)C(=O)O)c1cccs1 [Compound 35]
EC50 [1]: ≤ 50 nM
solubility (Solubility): > 100 mg/mL

CS(=O)(=O)c1cccc(C[C@H](NC(=O)c2c(Cl)cc3c(c2Cl)CCN(C(=O)c2cc4ccccc4[nH]2)C3)C(=O)O)c1 [Compound 36]
EC50 [1]: ≤ 50 nM
solubility (Solubility): > 50 mg/mL

CS(=O)(=O)c1cccc(C[C@H](NC(=O)c2c(Cl)cc(CCC(O)c3ccc(Cl)cc3)cc2Cl)C(=O)O)c1 (stereo partly shown) [Compound 37]
EC50 [1]: ≤ 100 nM

O=C(NC[C@H](NC(=O)c1c(Cl)cc2c(c1Cl)CCN(C(=O)c1cc3ccccc3o1)C2)C(=O)O)c1cccs1 [Compound 38]
EC50 [1]: ≤ 50 nM

CS(=O)(=O)Nc1ccccc1NC[C@H](NC(=O)c1c(Cl)cc2c(c1Cl)CCN(C(=O)c1ccc(Cl)cc1)C2)C(=O)O [Compound 39]
EC50 [1]: ≤ 50 nM

CS(=O)(=O)n1cc(C[C@H](NC(=O)c2c(Cl)cc3c(c2Cl)CCN(C(=O)/C=C/c2ccco2)C3)C(=O)O)c2ccccc21 [Compound 40]
EC50 [1]: ≤ 300 nM

CS(=O)(=O)c1ccc(C[C@H](NC(=O)c2c(Cl)cc3c(c2Cl)CCN(C(=O)c2ccc4ccoc4c2)C3)C(=O)O)o1 [Compound 41]
EC50 [1]: ≤ 50 nM
solubility (Solubility): > 100 mg/mL

CS(=O)(=O)CCNC[C@H](NC(=O)c1c(Cl)cc2c(c1Cl)CCN(C(=O)c1ccc(Cl)cc1)C2)C(=O)O [Compound 42]
EC50 [1]: ≤ 3000 nM
solubility (Solubility): > 100 mg/mL

CS(=O)(=O)c1cccc(C[C@H](NC(=O)c2c(Cl)cc(CNC(=O)/C=C/c3ccccc3O)cc2Cl)C(=O)O)c1 [Compound 43]
EC50 [1]: ≤ 50 nM

CS(=O)(=O)NCCC[C@H](NC(=O)c1c(Cl)cc2c(c1Cl)CCN(C(=O)c1ccc3ccoc3c1)C2)C(=O)O [Compound 44]
EC50 [1]: ≤ 50 nM
solubility (Solubility): > 100 mg/mL

O=C(NC[C@H](NC(=O)c1c(Cl)cc2c(c1Cl)CCN(C(=O)/C=C/c1ccco1)C2)C(=O)O)c1cccs1 [Compound 45]
EC50 [1]: ≤ 50 nM
solubility (Solubility): > 100 mg/mL

CS(=O)(=O)c1cccc(C[C@H](NC(=O)c2c(Cl)cccc2Cl)C(=O)O)c1 [Compound 46]
EC50 [1]: ≤ 100 nM
solubility (Solubility): > 100 mg/mL

O=C(CCc1cc(Cl)c(C(=O)N[C@@H](CNC(=O)c2cccs2)C(=O)O)c(Cl)c1)c1cccc(O)c1 [Compound 47]
EC50 [1]: ≤ 50 nM

C[C@H](O)c1cccc(C[C@H](NC(=O)c2c(Cl)cc3c(c2Cl)CCN(C(=O)c2ccc4cn[nH]c4c2)C3)C(=O)O)c1 [Compound 48]
EC50 [1]: ≤ 50 nM

CP(C)(=O)c1cccc(C[C@H](NC(=O)c2c(Cl)cc3c(c2Cl)CCN(C(=O)c2ccc4ccoc4c2)C3)C(=O)O)c1 [Compound 49]
EC50 [1]: ≤ 100 nM
